Tested on: A549 cells
Experiment: A549 microarray comparing macrolides with arachidonic acid pathway inhibitors, with IL-1β stimulation (Appendix C, Tables 6-9), and correlation analysis
Assay type: cell-based
Conditions: A549; IL1 vs IL1 + drug; threshold 1.3; macrolides 50 μM (FMA 10 μM), triacsin C 15 μM, indomethacin and dexamethasone 100 nM
From the text: One inhibitor, triacsin C, acts on AA biosynthesis by inhibiting arachidonyl CoA synthetases, blocking the incorporation of free AA into phospholipids. Triacsin C is reasonably specific for AA compared to other fatty acids. However, triacsin C structurally resembles AA so it also may interfere with other steps in the AA pathway. Indomethacin is an inhibitor of COX1 and COX2 enzyme activities and therefore specifically blocks metabolism of AA into prostaglandins. […] It inhibits transcription of PLA2, and transcriptionally and post-transcriptionally regulates COX1 and COX2 activities. Dexamethasone has additional effects unrelated to AA through binding with the glucocorticoid receptor to glucocortcoid response elements.
A549 cells were pre-incubated overnight (17 hours) with macrolides (10 μM FMA-9045, 50 μM clarithromycin, 50 μM roxithromycin, 50 μM josamycin) and 15 μM triacsin C, and pre-incubated 2 hours with 100 nM indomethacin and 100 nM dexamethasone. All cells then were stimulated for 4 hours with IL-1β, because the activation of PLA2 and downstream signaling events generally requires an inflammatory stimulus. The various treatment conditions are shown below in Table 4. Following macrolide and inhibitor pre-treatment and IL-1 stimulation, the cells were lysed, total RNA was collected, and the poly-A+ mRNA fraction was purified. The resulting microarray data (Appendix C) were analyzed using the methods described in the Examples above.
The tables in Appendix C represent the effects of the arachidonic acid pathway inhibitors (“AA pathway inhibitors”) and the effects of the macrolides (“IL1+macrolide effects”). […] In both tables in Appendix C, the genes that meet this criterion (≧1.3 min fold change) are indicated in bold.
Quantitative analysis was done to determine how well the responses to the different AA pathway inhibitors correlated. The correlation values were assigned a p-value to provide statistical confidence to the correlation value. Correlation between experiments, across all spots showing good detection, was assessed by cosine vector angle to generate the data shown in Tables 7-9. A correlation coefficient close to one indicates strong correlation, whereas a value near zero indicates no correlation. P-values for each correlation coefficient were estimated based on a Fisher permutation test. In this test, each spot's expression ratios were randomly re-ordered across experiments and the degree of correlation between experiments was then reassessed. This was done repeatedly.

C[C@@H]1C[C@H]2[C@@H]3CCC4=CC(=O)C=C[C@]4(C)[C@@]3(F)[C@@H](O)C[C@]2(C)[C@@]1(O)C(=O)CO [dexamethasone]
Total # Differential Genes (95% confidence): 341
